Laboratory results published in patent publication US12447184B1, “Lactic acid bacteria and use thereof” (UNIVERSITY-INDUSTRY COOPERATION GROUP OF KYUNG HEE …, priority 2017, dated 2025).

Key:
C57BL/6 mouse = test: Elevated plus maze (EPM) test; format: in vivo; settings: for OE (%) / OT (%): immobilization stress
From the text: In order to induce a mental disorder such as anxiety, depression, stress or the like, a mouse was fixed to a 3×10 cm cylindrical-shaped immobilization stress apparatus, such that the mouse may not move therein at all.
Particularly, in order to prepare a mouse with anxiety induced by immobilization stress, the said mouse, which had been fixed to the apparatus, was repeatedly subjected to immobilization stress five times, in such a way that the mouse was held with its head up for two hours once every other day, and then a behavioral experiment was performed in two hours after a final immobilization stress.
(§1) Also, in order to prepare a mouse with depression induced by immobilization stress, the said mouse, which had been fixed to the apparatus, was repeatedly subjected to continuous immobilization stress once daily for two days, in such a way that the mouse was held with its head up for 12 hours. A lactic acid bacterium was administered once daily for five days, and a behavioral experiment was performed in one hour after a final administration.
In order to induce a mental disorder such as anxiety, depression, stress or the like, a mouse was administered ampicillin (100 mg/kg) for two days in a row. An anxiety behavior was measured in 10 days after administration.
For a mouse model with immobilization stress induced, a lactic acid bacterium or physiological saline solution was administered thereto depending on an experimental group once daily for three days from Day 7 after starting the immobilization stress. For a mouse model with antibiotic stress induced, a lactic acid bacterium or physiological saline solution was administered thereto depending on an experimental group once daily for three days from Day 7 after starting the antibiotic stress.
(§2) An anxiety behavior was measured in five hours after administering the lactic acid bacterium or physiological saline solution, and blood indicators (corticosterone, IL-6, TNF-α, etc.) were measured by collecting blood in one hour after finishing an elevated plus maze test.
An elevated plus maze is an experimental apparatus to measure a degree of a mental disorder such as stress, anxiety or the like. An elevated plus maze experimental apparatus used in the present experiment is a black plexiglass apparatus, in which two open arms (30×7 cm) and two enclosed arms (30×7 cm) with 20 cm-high walls stand 50 cm high above a floor, each extending 7 cm away from a center platform. In the present test, a mouse was placed in the elevated plus maze in a room, where a video camera of 20 Lux was installed high up there, and then a movement of the mouse was recorded.
Particularly, a C57BL/6 mouse (male, 19-22 g) was placed in the middle of the elevated plus maze, in such a way that a head of the mouse faced toward an open arm. Time spent in open and closed arms as well as the number of arm entries were measured for five minutes. An arm entry was defined as a case in which the mouse entered an arm with all four feet.
Out of a whole test time, the time spent in open arms (OT) was calculated via [Time spent in open arms (OT)/(Time spent in open arms (OT)+Time spent in closed arms)]×100. […] After the end of each behavioral experiment, remaining smell was eliminated by means of 70% ethanol.
According to a known interpretation of test results, it was interpreted that a mental disorder symptom such as anxiety, depression or the like occurs, if OT and OE decrease.

mouse [1] = test: Light/dark transition test; format: in vivo; settings: immobilization stress model
Method: An apparatus used for a light/dark transition test consisted of a bright area (21×42×25 cm, 390 Lux white diode) and a dark area (21×42×25 cm, 2 Lux), which were of a size and partitioned off with a door (7.5×7.5 cm). A mouse was placed in a bright area and observed for five minutes, during which time in bright area and the number of transitions into the bright area were measured. After the end of each behavioral experiment, remaining smell was eliminated by means of 70% ethanol.
According to a known interpretation of test results, it was interpreted that a mental disorder symptom such as anxiety, depression or the like occurs, if the time in bright area and the number of transitions into the bright area decrease.

mouse [2] = test: Forced swimming test (FST); format: in vivo; settings: depressed mouse model
Method: as §1
According to a method of Porsolt et al. (Porsolt R D, Le Pichon, Jalfre M (1977) Depression: A new animal model sensitive to antidepressant treatments, Nature, Vol. 266; pp. 730-732), water at 25±1° C. was filled into a water tank 40 cm in height and 20 cm in diameter, until a water level reached 25 cm high. A laboratory mouse was put into each tank and stayed there for total six minutes, out of which first two minutes were not measured as an adaptive time, and then for the last four minutes, an immobility time of the laboratory animal was measured. The immobility means a state that the mouse is floating in the water motionlessly except the least movement to keep its head only above the water.

mouse [3] = test: Tail suspension test (TST); format: in vivo; settings: depressed mouse model
Method: as §1
According to a method of Steru et al. (Steru L, Chermat R, Thierry B, Simon P (1985) The tail suspension test: A new method for screening antidepressants in mice, Psychopharmacology, Vol. 85; pp. 367-370), a mouse was hanged up in a container 35 cm in diameter and 50 cm in height by placing a fixing device approximately 1 cm from the tip of a tail thereof of a mouse, such that the mouse was suspended 50 cm above a floor. For six minutes in total, an immobility time of the laboratory animal was measured.

[4] = system: corticosterone, IL-6, TNF-α and lipopolysaccharide in blood; test: Blood indicators (corticosterone, IL-6, TNF-α, lipopolysaccharide); format: in vivo, mouse; settings: for BC (ng/mL), corticosterone in blood: immobilization stress
Method: as §2
Blood was diluted 10 times with PBS, then centrifuged, and then a resulting supernatant was treated at […] for 10 minutes. A resulting supernatant was filtered with a 0.45 μm filter, then filtered again with a 0.22 μm filter, and then used as a specimen. For the said specimen, lipopolysaccharide was measured by means of Limulus amoebocyte lysate (LAL) assay kit (Cape Cod Inc., East Falmouth, MA, U.S.A.).
(§3) Inflammatory reaction biomarkers such as p-p65, p65, iNOS, COX-2 and β-actin were measured by means of a western blotting method. Particularly, 50 μg of supernatant, which had been obtained by the same method as shown in the said experiment for measuring the activity of myeloperoxidase (MPO), was taken and then immune blotting was performed thereon. Also, an expression level of cytokines was measured by means of ELISA kit, and LPS was measured by means of LAL assay kit.
(§4) In two hours after performing a last behavioral experiment on a depressed mouse, the mouse was anesthetized, and corticosterone in blood was measured by means of ELISA, and a brain derivated neurotrophic factor (BDNF) and NF-κB of a brain and NF-κB of a colon were measured by means of immunoblotting by the same method as shown in Experimental Example 5 above, wherein the results thereof are as shown in a following table 14.

[5] = system: NF-κB (p-p65/p65) and BDNF in a hippocampus; test: NF-κB activity and BDNF expression in hippocampus (immunoblotting); format: in vivo; settings: depressed mouse
Method: as §3, §4

colon [6] = test: Colitis indicators (colon length, myeloperoxidase, inflammatory indicators of the colon); format: in vivo, mouse; settings: immobilization stress
Method: 200 μl of 10 mM potassium phosphate buffer, pH 7.0 containing 0.5% hexadecyl trimethyl ammonium bromide was put into 100 mg of a colon tissue, and then subjected to homogenization. A resulting mixture was centrifuged for 10 minutes on condition of 4° C. and 10,000 g, so as to obtain a supernatant. 50 μl of the supernatant was put into 0.95 ml of a reaction solution (containing 1.6 mM tetramethyl benzidine and 0.1 mM H2O2), then subjected to reaction at 37° C., and then an observance was […] measured at 650 nm. An activity of the said myeloperoxidase (MPO) was calculated with a resulting reactant H2O2 1 μmol/ml=1 unit.
as §3
In two hours after performing a last behavioral experiment on an anxious mouse in Experimental Example 1, the mouse was anesthetized, and a colon length and activations of MPO, COX-2, TNF-α and NF-Kb were measured by the same method as shown in Experimental Example 5, wherein the results thereof are as shown in a following table 15.

mouse [7] = test: Object recognition test; format: in vivo; settings: mouse given LPS from E. coli 0.5 mg/kg/day i.p. for five days
Method: (§5) On a following day after intraperitoneally administering LPS isolated from E. coli (0.5 mg/kg/day) to a mouse for five days, lactic acid bacteria were administered thereto, and an effect of lactic acid bacteria on improving a cognitive function was identified in such a way that an object recognition test and a Y maze test were performed and BDNF in a hippocampus was measured by immunoblotting, wherein the results thereof are as shown in a following table 18.
Particularly, as an object recognition test method, two objects (A, A′) of the same shape and size were fixed into a box (40×40×40 cm), of which outside is not visible from the inside, then a mouse was allowed to start moving at the center of the box, and then the number of touching the two objects was recorded for 10 minutes. In 24 hours later, one of the two objects was replaced with a new one (A, B), and then the number of touching an old one and a new one was recorded and quantified.

mouse [8] = test: Y maze test; format: in vivo; settings: mouse given LPS from E. coli 0.5 mg/kg/day i.p. for five days; spontaneous alteration
Method: as §5
Also, as a Y maze test method, a test apparatus consisted of the three identical arms (8 cm in length, […], 14 cm in height), each positioning at a certain angle of 120°. The mouse was placed at the end of one arm and allowed to freely move in a Y maze for eight minutes, after which the number and order of entering respective arms were measured, so as to evaluate a spontaneous alteration (%). The alteration was defined as an alphabetical character order, in which the mouse sequentially entered into three arms, i.e. ABC, BCA, CAB, etc. % alteration=[Total number of alterations]/[Total number of arm entries−2]×100

BDNF in a hippocampus = BDNF in a hippocampus by immunoblotting (LPS-treated mouse); format: in vivo; settings: mouse given LPS from E. coli 0.5 mg/kg/day i.p. for five days
Method: as §5

colon [9] = test: Colitis indicators (colon length, myeloperoxidase, inflammatory indicators of the colon); format: in vivo, mouse; settings: antibiotic stress
[10] = antibiotic stress (ampicillin 100 mg/kg, two days)

With `O=C1CC2(CCCC2)CC(=O)N1CCCCN1CCN(c2ncccn2)CC1` [Buspirone] the “OE (%)” value (C57BL/6 mouse; Anxious mouse) was 33.8%, the “OT (%)” value (C57BL/6 mouse; Anxious mouse, once daily for three days) was 16.7% and the “OE (%)” value (C57BL/6 mouse; Depressive mouse) was 29.8%. For the same compound, the “OT (%)” value (C57BL/6 mouse; Depressive mouse) was 15.7%, the “Open arm entries (%)” value (C57BL/6 mouse; [10]) was 31.3% and the “Time spent in open arms (%)” value (C57BL/6 mouse; [10]) was 14.1%. The Number of transitions (mouse [1]) was 19.6, the “Time in bright area (%)” value (mouse [1]) was 40.1% and the “Immobility time (%)” value (mouse [2]) was 32.1%. For the same compound, the “Immobility time (%)” value (mouse [3]) was 25.2%, the “BC (ng/mL), corticosterone in blood” value ([4]; Anxious mouse) was 1.2 ng/mL and the “BC (ng/mL), corticosterone in blood” value ([4]; Depressive mouse) was 3.8 ng/mL. The “Blood corticosterone” value [4, 10] was 1.6 ng/mL, the “Blood corticosterone” value ([4]; depressed mouse, ELISA, Table 14) was 3.8 ng/mL and the BDNF expression level [5] was “− (− , <10%)”. The “NF-kB activation inhibitory capacity” value [5] was “− (− , <10%)”, the “Colon length (cm)” value (colon [6]; Anxious mouse) was 5.2 cm and the “Inflammatory indicator inhibition rate COX-2” value (colon [6]; anxious mouse, colon) was “+ (+, 10~30%)”. For the same compound, the “Inflammatory indicator inhibition rate NF-κB” value (colon [6]; anxious mouse, colon) was “+ (+, 10~30%)”, the “Inflammatory indicator inhibition rate TNF-α” value (colon [6]; anxious mouse, colon) was “+ (+, 10~30%)” and the MPO inhibitory capacity (colon [6]; anxious mouse, colon) was “+ (+, 10~30%)”. For the same compound, the “Object recognition test (%)” value (mouse [7]) was 42.9%, the “Y maze test (%)” value (mouse [8]) was 62.4% and the “Hippocampus BDNF expression capacity” value (BDNF in a hippocampus) was “+ (+, 10~30%)”. For the same compound, the “Colon length (cm)” value (colon [9]) was 5.5 cm, the “Inflammatory indicator inhibition rate COX-2” value (colon [9]; colon) was “+ (+, 10~30%)” and the “Inflammatory indicator inhibition rate NF-κB” value (colon [9]; colon) was “+ (+, 10~30%)”. For the same compound, the “Inflammatory indicator inhibition rate TNF-α” value (colon [9]; colon) was “+ (+, 10~30%)” and the MPO inhibitory capacity (colon [9]; colon) was “+ (+, 10~30%)”.
